{
  "source": "patent US20220287964A1",
  "about": "“TOPICAL FORMULATIONS COMPRISING CANNABIDIOL, METHOD OF PREP ARING THE COMPOSITION AND USE THEREOF” (CS Medica A/S, priority 2019, published 2022)",
  "origin": "cited, not measured here",
  "conditions": "oral administration, given for comparison; cited from earlier work",
  "data": [
    {"smiles": "C=C(C)[C@@H]1CCC(C)=C[C@H]1c1c(O)cc(CCCCC)cc1O", "note": "[cannabidiol, Cannabidiol]", "values": [
      {"measurement": "Absorbed through the gastrointestinal passage", "value": "less than 10%"}
    ]}
  ]
}
